Results published in publication PMC10205683, “Structure Based Discovery of Inhibitors of CYP125 and CYP142 from Mycobacterium tuberculosis” (Chemistry (Weinheim an Der Bergstrasse, Germany), 2023).
Converted amounts (≈) assume the structure as drawn. Where two headings read alike, the source gives them in different places.

Tests used:
CYP125 = biological target: T1, CYP125 (Mycobacterium tuberculosis, UniProt P9WPP1); assay: biochemical; assay type: binding; details: UV-Vis spectroscopy
T1 construct: encoding residues 18-433; twin-strep hexahistidine tag (TEV-cleavable) (N, cleaved yes); made in house; host or cells: E. coli C41(DE3), pET21a
T1 sequence (P9WPP1 18-433 limits assumed): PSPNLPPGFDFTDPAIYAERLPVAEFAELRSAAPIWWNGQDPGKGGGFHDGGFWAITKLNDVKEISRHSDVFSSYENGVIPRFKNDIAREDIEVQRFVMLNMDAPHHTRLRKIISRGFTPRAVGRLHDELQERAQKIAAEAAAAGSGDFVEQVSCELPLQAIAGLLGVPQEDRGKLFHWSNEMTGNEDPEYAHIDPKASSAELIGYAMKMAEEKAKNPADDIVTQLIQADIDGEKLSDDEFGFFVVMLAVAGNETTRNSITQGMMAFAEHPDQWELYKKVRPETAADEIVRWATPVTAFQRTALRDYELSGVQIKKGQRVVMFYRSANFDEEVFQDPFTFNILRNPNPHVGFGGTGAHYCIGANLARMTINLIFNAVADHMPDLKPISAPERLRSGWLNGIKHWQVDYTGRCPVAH

CYP142 [1] = biological target: T2, CYP142 (Mycobacterium tuberculosis, UniProt P9WPL5); assay: biochemical; details: UV-Vis spectroscopy
T2 sequence (P9WPL5 2-398): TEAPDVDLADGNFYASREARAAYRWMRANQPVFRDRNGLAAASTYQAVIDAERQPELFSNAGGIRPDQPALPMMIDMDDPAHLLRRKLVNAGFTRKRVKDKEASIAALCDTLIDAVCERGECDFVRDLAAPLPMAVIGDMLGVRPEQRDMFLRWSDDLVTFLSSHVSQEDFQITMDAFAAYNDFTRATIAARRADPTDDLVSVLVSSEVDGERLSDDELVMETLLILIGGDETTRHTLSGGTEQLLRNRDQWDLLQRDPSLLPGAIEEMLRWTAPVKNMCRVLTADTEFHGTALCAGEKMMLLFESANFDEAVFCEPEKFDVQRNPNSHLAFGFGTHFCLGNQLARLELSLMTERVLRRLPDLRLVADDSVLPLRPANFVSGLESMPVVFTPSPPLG

Mtb H37Rv (ATCC 27294) = assay: MIC determination against Mtb H37Rv; assay type: cell-based, Mycobacterium tuberculosis
Mtb strain KB019 = assay: microbe, parasite or virus in culture; assay type: cell-based; details: Mycobacterium tuberculosis
Mtb strain K18b01MR = assay: microbe, parasite or virus in culture; assay type: cell-based; details: Mycobacterium tuberculosis
Mtb strain NIH_G269DR = assay: microbe, parasite or virus in culture; assay type: cell-based; details: Mycobacterium tuberculosis
Mtb strain K03b00DS = assay: MIC determination against Mtb K03b00DS (DS); assay type: cell-based; details: Mycobacterium tuberculosis
Mtb strain CDC1551 = assay: MIC determination against Mtb CDC1551 (clinical strain); assay type: cell-based; details: Mycobacterium tuberculosis
Mtb strain 53 K113 = assay: microbe, parasite or virus in culture; assay type: cell-based; details: Mycobacterium tuberculosis
Mtb strain 028 K111 = assay: microbe, parasite or virus in culture; assay type: cell-based; details: Mycobacterium tuberculosis
CYP142 [2] = biological target: T2, CYP142; details: read-out: KD (CYP142); UV-Vis spectroscopy
[3] = Mycobacterium tuberculosis, 336 h
[4] = Mycobacterium tuberculosis, 168 h, Table S1, H37Rv, […], 1 Week

Row | Compound | Kd (CYP125) [µM] | Kd (CYP142 [1]) [µM] | MIC (Mtb H37Rv (ATCC 27294); [3]) [µM] | MIC (Mtb strain KB019; KB019, 168 h) [µM] | MIC (Mtb strain KB019; KB019, 336 h) [µM] | MIC (Mtb strain K18b01MR; 168 h) [µM] | MIC (Mtb strain K18b01MR; 336 h) [µM] | MIC (Mtb strain NIH_G269DR; 168 h) [µM] | MIC (Mtb strain NIH_G269DR; 336 h) [µM] | MIC (Mtb strain K03b00DS; 168 h) [µM] | MIC (Mtb strain K03b00DS; 336 h) [µM] | MIC (Mtb strain CDC1551; 168 h) [µM] | MIC (Mtb strain CDC1551; 336 h) [µM] | MIC (Mtb strain 53 K113; 53K113, 168 h) [µM] | MIC (Mtb strain 53 K113; 53K113, 336 h) [µM] | MIC (Mtb strain 028 K111; 028K111, 168 h) [µM] | MIC (Mtb strain 028 K111; 028K111, 336 h) [µM] | other results
1 | CCOC(=O)c1cc2cc(-c3ccncc3)ccc2n1CC1CCCC1 [Compound 8] | 0.3 ± 0.06 | 0.06 ± 0.01 | – | – | – | – | – | – | – | – | – | – | – | – | – | – | – | –
2 | Cc1cnc(-c2cc3cc(-c4ccncc4)ccc3n2CCC2CCNCC2)o1 [Compound 17] | 5.3 ± 0.2 | 0.79 ± 0.05 | 19 (≈ 7.34 µg/mL) | 12.5 (≈ 4.83 µg/mL) | 19 (≈ 7.34 µg/mL) | 6.25 (≈ 2.42 µg/mL) | 6.25 (≈ 2.42 µg/mL) | 6.25 (≈ 2.42 µg/mL) | 6.25 (≈ 2.42 µg/mL) | 4.7 (≈ 1.82 µg/mL) | 4.7 (≈ 1.82 µg/mL) | 6.25 (≈ 2.42 µg/mL) | 6.25 (≈ 2.42 µg/mL) | 6.25 (≈ 2.42 µg/mL) | 6.25 (≈ 2.42 µg/mL) | 6.25 (≈ 2.42 µg/mL) | 6.25 (≈ 2.42 µg/mL) | –
3 | CCOC(=O)c1cc2cc(-c3ccncc3)ccc2n1CCN1CCOCC1 [Compound 12] | 2.8 ± 0.1 | 1.1 ± 0.1 | – | – | – | – | – | – | – | – | – | – | – | – | – | – | – | –
4 | CCOC(=O)c1cc2cc(-c3ccncc3)ccc2n1C(=O)c1ccccc1 [Compound 6] | 0.12 ± 0.04 | 0.42 ± 0.08 | – | – | – | – | – | – | – | – | – | – | – | – | – | – | – | –
5 | COC(=O)c1cccc(-c2ccncc2)c1 [Compound 3] | 146 | 1.5 | – | – | – | – | – | – | – | – | – | – | – | – | – | – | – | –
6 | CCOC(=O)c1cc2cc(-c3ccncc3)ccc2n1Cc1ccccc1 [Compound 5] | 0.65 ± 0.06 | 0.04 ± 0.01 | – | – | – | – | – | – | – | – | – | – | – | – | – | – | – | –
7 | CCCC(=O)c1cc2cc(-c3ccncc3)ccc2n1CCC1CCNCC1 [Compound 19] | 3.6 ± 0.2 | – | 12.5 (≈ 4.69 µg/mL) | 12.5 (≈ 4.69 µg/mL) | 19 (≈ 7.13 µg/mL) | 6.25 (≈ 2.35 µg/mL) | 6.25 (≈ 2.35 µg/mL) | 6.25 (≈ 2.35 µg/mL) | 6.25 (≈ 2.35 µg/mL) | 4.7 (≈ 1.76 µg/mL) | 4.7 (≈ 1.76 µg/mL) | 6.25 (≈ 2.35 µg/mL) | 6.25 (≈ 2.35 µg/mL) | 6.25 (≈ 2.35 µg/mL) | 6.25 (≈ 2.35 µg/mL) | 6.25 (≈ 2.35 µg/mL) | 6.25 (≈ 2.35 µg/mL) | MIC (Mtb H37Rv (ATCC 27294)): 9.4 µM (≈ 3.53 µg/mL); MIC (Mtb H37Rv (ATCC 27294); Mycobacterium tuberculosis, 168 h): 6.25 µM (≈ 2.35 µg/mL); MIC (Mtb H37Rv (ATCC 27294); [4]): 9.4 µM (≈ 3.53 µg/mL); MIC (Mtb H37Rv (ATCC 27294); Table S1, H37Rv, […], 1 Week): 12.5 µM (≈ 4.69 µg/mL); Kd (CYP142 [2]): 0.23 ± 0.05 µM
8 | Cc1nnc(-c2cc3cc(-c4ccncc4)ccc3n2CCC2CCNCC2)o1 [Compound 18] | 10.2 ± 0.1 | 0.99 ± 0.1 | > 50 | > 50 | 50 (≈ 19.4 µg/mL) | 50 (≈ 19.4 µg/mL) | 50 (≈ 19.4 µg/mL) | > 50 | > 50 | 50 (≈ 19.4 µg/mL) | 50 (≈ 19.4 µg/mL) | 50 (≈ 19.4 µg/mL) | 50 (≈ 19.4 µg/mL) | 50 (≈ 19.4 µg/mL) | > 50 | 50 (≈ 19.4 µg/mL) | > 50 | MIC (Mtb H37Rv (ATCC 27294); [4]): 25 µM (≈ 9.69 µg/mL); MIC (Mtb H37Rv (ATCC 27294); Mycobacterium tuberculosis, 336 h, Table S1, H37Rv, […], 2 Week): 50 µM (≈ 19.4 µg/mL); MIC (Mtb H37Rv (ATCC 27294); Table S1, H37Rv, […], 1 Week): > 50 µM
9 | NC(=O)c1cc2cc(-c3ccncc3)ccc2n1CCN1CCNCC1 [Compound 15] | 48.8 ± 2.3 | 2.5 ± 0.2 | – | – | – | – | – | – | – | – | – | – | – | – | – | – | – | –
10 | CCOC(=O)c1cc2cc(-c3ccncc3)ccc2n1CCC1CCNCC1 [Compound 10] | 5 ± 0.2 | 0.39 ± 0.06 | – | – | – | – | – | – | – | – | – | – | – | – | – | – | – | –
